9 substances from patent US10632177B2, “Myoblast differentiation promoter” (NITTA GELATIN INC., priority 2012, dated 2020) can be followed below.

Non-standard residues stand in square brackets, D forms with d. No end group written: not given here. Hyp = O=C(O)[C@@H]1C[C@@H](O)CN1

The assay deals with C2C12 myoblast. In words: Myoblast differentiation promotion test in myoblast culture (Western blotting of differentiation markers). Format: cell-based, mouse. The conditions noted are these: Western blot band, numerical value in relation to 100 = control, 100 μM final concentration, eight days exposure. Here is the method:
Myoblast Differentiation Promotion Test in Myoblast Culture
For culture of C2C12 myoblast derived from mouse, a D-MEM culture medium containing 10% FBS, 100 units/mL sodium penicillin G, 100 μg/mL streptomycin and 1.0 g/L NaHCO3 (D-MEM culture medium (10% FBS, +P/S)) was used. Culture was conducted in an incubator at 37° C. containing 95% air and 5% CO2. In the condition that C2C12 myoblast was 90% confluent, the culture medium was replaced by a D-MEM culture medium including 2% horse serum (HS), 100 units/mL sodium penicillin G, 100 μg/mL streptomycin and 1.0 g/L NaHCO3 (D-MEM culture medium (2% HS+P/S)), and then the D-MEM culture medium (2% HS+P/S) replacement was repeated every two days to lead to differentiation into myotube cells. The peptides of Examples 1 to 21 and Comparative Examples 1 to 3 were added in a final concentration of 100 μM to the culture medium every the culture medium replacement, and cells were continuously exposed thereto for eight days.
The Western blotting method was conducted in the following procedure. The cells used for protein measurement were washed twice with PBS at the time of recovery, and the cells were scraped with a cell scraper and transferred to a tube, and centrifuged at 4° C. and at 250×g for 3 minutes, and then PBS was completely removed. For each tube, the cells were suspended in 100 μL of a buffer (20 mM HEPES-NaOH (pH 7.5), 0.5% NP-40, 1 mM EDTA, 100 μM AEBSF, 1 μg/mL aprotinin, 10 μg/mL leupeptin, 1 mM DTT, 1 mM sodium ortho-vanadate, 10 mM sodium fluoride, 10 μM ammonium molybdate, 10 mM sodium pyrophosphate), and then crushed under ice cooling for 5 seconds three times for each sample by using an ultrasonic disperser, followed by quantification of the amount of a protein. Quantification of the amount of a protein was conducted according to the method of Bradford using bovine serum albumin as a standard protein. After end of SDS-PAGE, a blotting device was used to conduct electro-transferring at 1.5 mA per 1 cm^2 of a membrane for 1 hour on a PVDF membrane equilibrated with methanol and subjected to pre-wetting by infiltration with a transfer buffer (48 mM Tris, 39 mM glycine). After end of the transferring, the PVDF membrane was blocked with PBS (−) containing 6% skim milk for 1 hour. A primary antibody was diluted in the following manner, and an antigen-antibody reaction was conducted overnight at 4° C. A peroxidase-conjugated secondary antibody against each primary antibody was diluted in PBS (−) containing 6% skim milk in the ratios: mouse anti-myosin heavy chain monoclonal antibody (MF20) culture supernatant 1/2000, mouse anti-tropomyosin monoclonal antibody (CH1) culture supernatant 1/2000, rabbit anti-GAPDH polyclonal antibody 1/3000, peroxidase-conjugated anti-mouse IgG 1/5000, and peroxidase-conjugated anti-rabbit IgG 1/2000, allowed to react for 30 minutes, and washed three times with PBS (−) for 10 minutes. Then the membrane was immersed in Immobilon™ Western Chemiluminescent HRP Substrate for 3 minutes, and detected by LAS-4000 (GE Healthcare, Buckinghamshire, UK). A band was converted into numbers by imageJ, and expressed in a numerical value in relation to 100 which was the value of the control.

Take “Ala-Hyp [Comparative Example 1, reference compound]”: the Myosin heavy chain is 62 and the Tropomyosin worked out at 44.
Ala-[Hyp]-Gly [Example 1] came in with a Myosin heavy chain of 218 and a Tropomyosin of 191.
For Glu-Hyp [Example 4], in that order: 214 and 140.
For Gly-Pro-[Hyp] [Example 5], in that order: 217 and 165.
Taken in the same sequence, the figures for Hyp-Gly [Example 7] were 334 and 419.
Leu-Hyp [Example 3] gave a Myosin heavy chain of 143 and a Tropomyosin of 195.
Regarding Pro-Ala [Example 6], the Myosin heavy chain is recorded as 131 and the Tropomyosin was determined as 169.
For Pro-Hyp [Example 8], in that order: 278 and 307.
For [Hyp]-Gly-Pro [Example 2], in that order: 166 and 181.
